Results from publication PMC2954295 (Chemistry & Biology, 2010).

Key:
[1] = target: human HexB (Homo sapiens, UniProt P07686); experiment: inhibition kinetics with pNP-GlcNAc substrate, Lineweaver-Burk; type: biochemical
[2] = target: T1, human OGA (O-GlcNAcase) (Homo sapiens, UniProt O60502); experiment: continuous UV/Vis assay with pNP-GlcNAc substrate, recombinant enzyme; type: biochemical
T1 sequence (O60502 1-916): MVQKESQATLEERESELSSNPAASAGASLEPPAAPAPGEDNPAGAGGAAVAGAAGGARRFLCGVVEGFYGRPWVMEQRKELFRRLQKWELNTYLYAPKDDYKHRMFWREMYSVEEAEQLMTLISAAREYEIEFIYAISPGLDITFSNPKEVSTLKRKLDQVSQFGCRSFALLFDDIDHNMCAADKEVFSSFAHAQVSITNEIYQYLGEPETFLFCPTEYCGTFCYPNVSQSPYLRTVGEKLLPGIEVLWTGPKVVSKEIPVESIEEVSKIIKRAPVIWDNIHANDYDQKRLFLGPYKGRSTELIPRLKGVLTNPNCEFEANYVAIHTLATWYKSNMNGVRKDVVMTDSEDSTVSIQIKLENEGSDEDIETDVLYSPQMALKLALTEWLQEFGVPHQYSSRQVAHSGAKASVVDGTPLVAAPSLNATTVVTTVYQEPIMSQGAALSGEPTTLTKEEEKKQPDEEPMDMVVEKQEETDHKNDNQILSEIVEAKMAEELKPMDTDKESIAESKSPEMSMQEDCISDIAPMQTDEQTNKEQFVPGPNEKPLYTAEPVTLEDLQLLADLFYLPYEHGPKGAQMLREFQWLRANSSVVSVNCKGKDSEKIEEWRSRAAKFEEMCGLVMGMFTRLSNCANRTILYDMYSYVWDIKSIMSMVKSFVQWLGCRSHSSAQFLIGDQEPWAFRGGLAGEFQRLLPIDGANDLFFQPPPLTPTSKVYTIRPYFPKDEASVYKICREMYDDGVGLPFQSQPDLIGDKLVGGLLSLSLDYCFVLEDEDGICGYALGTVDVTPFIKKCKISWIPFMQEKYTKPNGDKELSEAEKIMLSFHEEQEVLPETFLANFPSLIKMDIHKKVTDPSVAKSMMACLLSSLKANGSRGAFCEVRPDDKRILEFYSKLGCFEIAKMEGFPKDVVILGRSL

Sequence of human HexB (P07686 122-311): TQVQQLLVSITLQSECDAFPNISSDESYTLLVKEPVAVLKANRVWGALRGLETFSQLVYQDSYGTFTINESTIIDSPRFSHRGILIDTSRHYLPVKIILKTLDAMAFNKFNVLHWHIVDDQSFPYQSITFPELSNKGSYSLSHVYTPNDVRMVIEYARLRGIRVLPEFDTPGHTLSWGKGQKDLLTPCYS
Sequence of human HexB (P07686 315-556): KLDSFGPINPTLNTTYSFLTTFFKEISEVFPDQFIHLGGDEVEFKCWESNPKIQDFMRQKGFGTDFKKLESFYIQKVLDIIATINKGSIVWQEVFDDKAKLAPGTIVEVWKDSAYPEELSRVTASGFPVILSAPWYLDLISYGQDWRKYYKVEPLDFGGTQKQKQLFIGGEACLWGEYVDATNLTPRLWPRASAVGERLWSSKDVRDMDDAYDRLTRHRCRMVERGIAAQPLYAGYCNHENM

CC(=O)N[C@H]1CN2CC[C@H](O)[C@@H]2[C@@H](O)[C@@H]1O [6-Ac-Cas]
Ki [1]: 250 nM
Ki [2]: 300 nM
